O=S(=O)([O-])c1cccc2ccccc12.[Na+]
solubility (mole fraction)
Settings | 278.15 K | 283.15 K | 288.15 K | 293.15 K | 298.15 K | 303.15 K | 308.15 K | 313.15 K | 318.15 K | 323.15 K
in 1,4-dioxane | 0.0004 | 0.000497 | 0.000602 | 0.000722 | 0.000842 | 0.00101 | 0.00121 | 0.00143 | 0.00169 | 0.00203
in acetone | 9.36e-05 | 0.000122 | 0.000156 | 0.000197 | 0.00024 | 0.000288 | 0.000351 | 0.000417 | 0.000501 | 0.0006
in cyclohexanone | 0.000222 | 0.000299 | 0.00038 | 0.000481 | 0.000603 | 0.000743 | 0.0009 | 0.00108 | 0.00127 | 0.00152
in ethanol | 0.000297 | 0.000386 | 0.000513 | 0.000668 | 0.000829 | 0.00106 | 0.00132 | 0.00167 | 0.00217 | 0.00277
in ethyl acetate | 4.49e-05 | 5.77e-05 | 7.34e-05 | 9.37e-05 | 0.000119 | 0.000148 | 0.000184 | 0.000227 | 0.000269 | 0.000311
in isopropanol | 0.000108 | 0.000145 | 0.000204 | 0.000275 | 0.000351 | 0.000458 | 0.000588 | 0.000727 | 0.000886 | 0.00109

From BigSolDB 2.1
